Source: patent publication US6239297A, “Sphingosine derivatives and medicinal composition” (Takara Shuzo Co., Ltd., priority 1997, dated 2001)
Values after ≈ are worked out from the molar mass of the structure shown.

Tests used:
[1] = tested on: mixed lymphocytes reaction (MLR), T cells from spleen cells of C57BL/6 mice and BALB/c mice; test: Immunosuppressive activity: inhibition of mixed lymphocytes reaction (MLR); assay type: cell-based, mice (C57BL/6; conditions: Lymphocyte; mouse MLR, 50% inhibition
Text: We measured inhibitory activity of mixed lymphocytes reaction (MLR) and determined the 50% inhibitory activity. Lymphocytes used are T cells from spleen cells of C57BL/6 mice and BALB/c mice.

[2] = tested on: Cryptococcus neoformans TIMM 0354; test: Antifungal activity: growth inhibition of Cryptococcus neoformans TIMM 0354 (serial two-fold dilution); assay type: cell-based; conditions: YNBG liquid medium, 2 days at 30° C.; for minimum growth sub-inhibitory concentration (minimum concentration causing partial growth inhibition; value in parentheses): printed in parentheses; for MIC: Cryptococcus neoformans, TIMM0354, 48 h, read-out: Antifungal activity MIC (minimum growth inhibitory concentration)
Procedure: The test microorganism used was Cryptococcus neoformans TIMM 0354. YNBG liquid medium (Difco yeast nitrogen base 0.67%, glucose 1%) was used and the minimum growth inhibitory concentration […] was determined after culturing for 2 days at 30° C. in the presence of the serial two-fold dilution of the compound. The minimum growth sub-inhibitory concentration (μg/ml) was determined as the minimum concentration causing partial growth inhibition of the microorganism and also shown in Table 2 in parentheses.

CCCCCCCCCCCCCCCC(O)C(N)C(=O)NC(C)C(=O)NC(C(=O)NC(CO)CO)C(C)C (centres unmarked) [Compound (8)] was tested, and the IC50 [1] was 0.44 µg/mL (≈ 0.787 µM) and the “minimum growth sub-inhibitory concentration (minimum concentration causing partial growth inhibition; value in parentheses)” value [2] was 50 µg/mL.
With CCCCCCCCCCCCCC=CC(O)C(N)COC(=O)C(O)CO (centres unmarked) [Compound (5)] the IC50 [1] was 5 µg/mL (≈ 12.9 µM), the MIC [2] was 50 µg/mL (≈ 129 µM) and the “minimum growth sub-inhibitory concentration (minimum concentration causing partial growth inhibition; value in parentheses)” value [2] was 25 µg/mL.
In the case of CCCCCCCCCCCCCC=CC(O)C(N)COC(=O)C(N)C(C)C (centres unmarked) [Compound (6)], the IC50 [1] is reported as 1.55 µg/mL (≈ 3.89 µM), the MIC [2] is reported as 50 µg/mL (≈ 125 µM) and the “minimum growth sub-inhibitory concentration (minimum concentration causing partial growth inhibition; value in parentheses)” value [2] is reported as 25 µg/mL.
With CCCCCCCCCCCCCC=CC(O)C(N)COC(=O)C(NC(=O)C(O)CO)C(C)C (centres unmarked) [Compound (2)] the IC50 [1] was 1.86 µg/mL (≈ 3.82 µM), the MIC [2] was 25 µg/mL (≈ 51.4 µM) and the “minimum growth sub-inhibitory concentration (minimum concentration causing partial growth inhibition; value in parentheses)” value [2] was 12.5 µg/mL.
CCCCCCCCCCCCCCCC(O)C(N)COC(=O)[C@@H](NC(=O)C(O)CO)C(C)C (some centres unmarked) [Compound (1)] was tested, and the IC50 [1] was 3.25 µg/mL (≈ 6.65 µM), the MIC [2] was 50 µg/mL (≈ 102 µM) and the “minimum growth sub-inhibitory concentration (minimum concentration causing partial growth inhibition; value in parentheses)” value [2] was 25 µg/mL.
